Patent publication US8546426B2, “N-aminotetrahydroisoquinolines as anti-cancer agents” (Florida A&M University Board of Trustees, priority 2011, dated 2013)
Converted amounts (≈) assume the structure as drawn.

Experiments:
Type in all cases: cell-based
[1] = tested on: MCF-7 estrogen receptor-positive breast cancer cells; test: […]-GLO luminescent cell viability assay, MCF-7; details: Homo sapiens, MCF7, MCF-7 cells, 5000 cells/well, 72 h at 37° C.
Protocol: (§1) All the compounds are tested in three cell lines. Different concentration of compounds, ranging from about 0.01 nM to about 100,000 nM were delivered to 5×10^3 cells per well, which were then incubated for three days at 37° C., followed by CTG assay.
(§2) In this assay, the number of viable cells in culture is determined based on the quantification of ATP present, which signals the presence of metabolically active cells. Damaged cells are not detected as the ATP leaked from these cells is quickly consumed by ATPases that are also released upon damage). The amount of ATP is determined using a system based on luciferase and D-luciferin resulting in light generation.
(§3) The cell lines were plated in 13, 96 well plates at a density of 5000 cells/well in total volumes of 50 μL in phenol-red free medium and incubated for overnight.
(§4) 25 μL of 40 nM estradiol should be added to all appropriate wells on the plate. […] 25 μL of stocks (containing the compounds to be tested, DMSO and phenol-red free medium) were added to cells and medium already on plate. 50 μL of medium were added to media wells, and 50 μL of mix (contain 32 mL DMSO+768 mL phenol-red free medium) to all vehicle control wells.
(§5) Luminescence results were read on TriLux Luminometer. The luminescent signal is proportional to the number of active cells present in culture. […] As a consequence, the number of metabolically active cells can be directly derived from the luminescent signal using a specific calibration curve. Data were expressed as percentage of untreated control (i.e. treatment value-blank/vehicle value blank), mean±SE for three replications.

Ishikawa cells = test: […]-GLO luminescent cell viability assay, Ishikawa; details: Homo sapiens, 5000 cells/well, 72 h at 37° C.
Protocol: as §1, §2, §3, §4, §5

[2] = tested on: MDA-MB-231 estrogen receptor-negative breast cancer cell line; test: […]-GLO luminescent cell viability assay, MDA-MB-231; details: Homo sapiens, MDA-MB-231 cells, 5000 cells/well, 72 h at 37° C.
Protocol: as §1, §2, §3, §4, §5

| Structure (SMILES) | IC50 [1] [µg/mL] | IC50 (Ishikawa cells) [µg/mL] | IC50 [2] [µg/mL] |
| --- | --- | --- | --- |
| COc1ccc(C(=O)NN2CCc3ccccc3C2)cc1 [Redda-GM-3-16, N-(3,4-dihydroisoquinolin-2(1H)-yl)-4-methoxybenzamide] | 0.93 (≈ 3.29 µM) | 0.21 (≈ 0.744 µM) | 0.78 (≈ 2.76 µM) |
| O=C(NN1CCc2ccccc2C1)c1ccccc1 [Redda-GM-3-15, N-(3,4-dihydroisoquinolin-2-(1H)-yl)benzamide] | 0.63 (≈ 2.5 µM) | 0.23 (≈ 0.912 µM) | 0.74 (≈ 2.93 µM) |
| COc1ccc(S(=O)(=O)NN2CCc3ccccc3C2)cc1 [Redda-CM-3-13, N-(3,4-dihydroisoquinolin-2(1H)-yl)-4-methoxybenzenesulfonamide] | 1.27 (≈ 3.99 µM) | 0.45 (≈ 1.41 µM) | 0.76 (≈ 2.39 µM) |
| Cc1ccc(C(=O)NN2CCc3ccccc3C2)cc1 [Redda-GM-3-19] | 0.7 (≈ 2.63 µM) | 0.44 (≈ 1.65 µM) | 1.02 (≈ 3.83 µM) |
| O=C(NN1CCc2ccccc2C1)c1ccc(Cl)cc1 [Redda-GM-3-18, 4-chloro-N-(3,4-dihydroisoquinolin-2(1H)-yl)bemamide] | 0.71 (≈ 2.48 µM) | 0.61 (≈ 2.13 µM) | 0.8 (≈ 2.79 µM) |
